Assay results as given in ChEMBL document CHEMBL3407397, “Effect of size and N-terminal residue characteristics on bacterial cell penetration and antibacterial activity of the proline-rich peptide Bac7” (J Med Chem, 2015).
Converted amounts (≈) assume the structure as drawn. The source made the active and inactive calls. The calls are words filed in the database; no cut-off is given here. Non-standard residues stand in square brackets, D forms with d. Residues, ends and D or L forms follow the SMILES beside them. *: point of attachment. X1 = F[B-]1(F)n2c(ccc2*)C=C2C=CC=[N+]21; Cit = NC(=O)NCCC[C@H](N)C(=O)O

Experiments:
Escherichia coli [1] = assay: Drug uptake in O-antigen lacking LPS containing wild type Escherichia coli BW25113 at 1 uM up to 3.5 hrs in presence of trypan blue quencher; type: ADME, organism-based; details: in vivo
Escherichia coli [2] = assay: Drug uptake in delta-waaG deletion mutant containing Escherichia coli BW25113 at 4 uM up to 3.5 hrs in presence of trypan blue quencher; type: ADME, organism-based; details: in vivo
Escherichia coli [3] = assay: Drug uptake in Escherichia coli ATCC 25922 assessed as mean fluorescence intensity using BODIPY-labeled compound at 0.25 uM incubated for 10 mins by confocal microscopy; type: ADME, organism-based; details: in vivo
Escherichia coli [4] = assay: Drug uptake in Escherichia coli ATCC 25922 assessed as mean fluorescence intensity using BODIPY-labeled compound at 0.25 to 4 uM incubated for 10 mins by flow cytometry; type: ADME, organism-based; details: in vivo
Escherichia coli [5] = assay: Antimicrobial activity against Escherichia coli HB101 incubated for 18 hrs at 37 degC by broth microdilution method; type: functional; details: HB101, 18 h
Escherichia coli [6] = assay: Antimicrobial activity against Escherichia coli ATCC 25922 incubated for 18 hrs at 37 degC by broth microdilution method; type: functional; details: ATCC 25922, 18 h
Escherichia coli [7] = assay: Drug uptake in Escherichia coli ATCC 25922 assessed as mean fluorescence intensity using BODIPY-labeled compound at 0.25 to 4 uM incubated for 10 mins in presence of trypan blue quencher by flow cytometry; type: ADME, organism-based; details: in vivo
Escherichia coli [8] = assay: Drug uptake in Escherichia coli ATCC 25922 assessed as mean fluorescence intensity using BODIPY-labeled compound at 0.25 to 4 uM incubated for 60 mins by flow cytometry; type: ADME, organism-based; details: in vivo, 1 h
Escherichia coli [9] = assay: Drug uptake in Escherichia coli ATCC 25922 assessed as mean fluorescence intensity using BODIPY-labeled compound at 0.25 to 4 uM incubated for 60 mins in presence of trypan blue quencher by flow cytometry; type: ADME, organism-based; details: in vivo, 1 h
Escherichia coli [10] = assay: Bacteriostatic activity against delta-waaG deletion mutant containing wild type Escherichia coli BW25113 at 4 uM incubated for 3.5 hrs; type: functional, organism-based
Escherichia coli [11] = assay: Antimicrobial activity against delta-sbmA deletion mutant containing Escherichia coli BW25113 incubated for 18 hrs at 37 degC by broth microdilution method; type: functional; details: BW25113, 18 h
Escherichia coli [12] = assay: Antimicrobial activity against delta-waaG deletion mutant containing Escherichia coli BW25113 incubated for 18 hrs at 37 degC by broth microdilution method; type: functional; details: BW25113, 18 h
Escherichia coli [13] = assay: Antimicrobial activity against O-antigen lacking LPS containing wild type Escherichia coli BW25113 incubated for 18 hrs at 37 degC by broth microdilution method; type: functional; details: BW25113, 18 h
Escherichia coli [14] = assay: Bacteriostatic activity against O-antigen lacking LPS containing wild type Escherichia coli BW25113 at 4 uM incubated for 3.5 hrs; type: functional, organism-based
Escherichia coli [15] = assay: Bactericidal activity against O-antigen lacking LPS containing wild type Escherichia coli BW25113 assessed as bacterial killing at 4 uM incubated for 3.5 hrs; type: functional, organism-based
Escherichia coli [16] = assay: Drug uptake in O-antigen lacking LPS containing wild type Escherichia coli BW25113 up to 32 uM incubated for 60 mins by propidium iodide staining based cytofluorimetric method; type: ADME, organism-based; details: in vivo, 1 h
Escherichia coli [17] = assay: Bactericidal activity against delta-waaG deletion mutant containing wild type Escherichia coli BW25113 assessed as bacterial killing at 4 uM incubated for 3.5 hrs; type: functional, organism-based

Drug uptake (Escherichia coli [3])	Drug uptake (Escherichia coli [4])	Drug uptake (Escherichia coli [7])	Drug uptake (Escherichia coli [8])	Drug uptake (Escherichia coli [9])	SMILES	Drug uptake (Escherichia coli [1])	Drug uptake (Escherichia coli [2])	MIC (Escherichia coli [5]) [µM]	MIC (Escherichia coli [6]) [µM]	Activity (Escherichia coli [10])	MIC (Escherichia coli [11]) [µM]	MIC (Escherichia coli [12]) [µM]	MIC (Escherichia coli [13]) [µM]	Activity (Escherichia coli [14])	Activity (Escherichia coli [15])	Drug uptake (Escherichia coli [16])	Activity (Escherichia coli [17])
Active	Not Active	Not Active	Not Active	Not Active	CC[C@H](C)[C@H](NC(=O)[C@H](CCCNC(=N)N)NC(=O)[C@@H](N)CCCNC(=N)N)C(=O)N[C@@H](CCCNC(=N)N)C(=O)N1CCC[C@H]1C(=O)N[C@@H](CCCNC(=N)N)C(=O)N1CCC[C@H]1C(=O)N1CCC[C@H]1C(=O)N[C@@H](CCCNC(=N)N)C(=O)N[C@@H](CC(C)C)C(=O)N1CCC[C@H]1C(=O)N[C@@H](CCCNC(=N)N)C(=O)N1CCC[C@H]1C(=O)N[C@@H](CSc1ccc2n1[B-](F)(F)[N+]1=CC=CC1=C2)C(=O)O (H-RRIRPRPPRLPRPC(X1)-OH)			8 (≈ 15.7 µg/mL)	16 (≈ 31.4 µg/mL)								
Active	Active	Active	Active	Active	CC[C@H](C)[C@H](NC(=O)[C@H](CCCNC(=N)N)NC(=O)[C@@H](N)CCCNC(=N)N)C(=O)N[C@@H](CCCNC(=N)N)C(=O)N1CCC[C@H]1C(=O)N[C@@H](CCCNC(=N)N)C(=O)N1CCC[C@H]1C(=O)N1CCC[C@H]1C(=O)N[C@@H](CCCNC(=N)N)C(=O)N[C@@H](CC(C)C)C(=O)N1CCC[C@H]1C(=O)N[C@@H](CCCNC(=N)N)C(=O)N1CCC[C@H]1C(=O)N[C@@H](CCCNC(=N)N)C(=O)N1CCC[C@H]1C(=O)N[C@@H](CCCNC(=N)N)C(=O)N1CCC[C@H]1C(=O)N[C@@H](CC(C)C)C(=O)N1CCC[C@H]1C(=O)N[C@@H](Cc1ccccc1)C(=O)N1CCC[C@H]1C(=O)N[C@@H](CCCNC(=N)N)C(=O)N1CCC[C@H]1C(=O)NCC(=O)N1CCC[C@H]1C(=O)N[C@@H](CCCNC(=N)N)C(=O)N1CCC[C@H]1C(=O)N[C@H](C(=O)N1CCC[C@H]1C(=O)N[C@@H](CCCNC(=N)N)C(=O)N1CCC[C@H]1C(=O)N[C@@H](CC(C)C)C(=O)N1CCC[C@H]1C(=O)N[C@@H](Cc1ccccc1)C(=O)N1CCC[C@H]1C(=O)N[C@@H](CSc1ccc2n1[B-](F)(F)[N+]1=CC=CC1=C2)C(=O)O)[C@@H](C)CC (H-RRIRPRPPRLPRPRPRPLPFPRPGPRPIPRPLPFPC(X1)-OH)												

Second part, the molecule before the results:

SMILES	Drug uptake (Escherichia coli [3])	Drug uptake (Escherichia coli [4])	Drug uptake (Escherichia coli [7])	Drug uptake (Escherichia coli [8])	Drug uptake (Escherichia coli [9])	Drug uptake (Escherichia coli [1])	Drug uptake (Escherichia coli [2])	MIC (Escherichia coli [5]) [µM]	MIC (Escherichia coli [6]) [µM]	Activity (Escherichia coli [10])	MIC (Escherichia coli [11]) [µM]	MIC (Escherichia coli [12]) [µM]	MIC (Escherichia coli [13]) [µM]	Activity (Escherichia coli [14])	Activity (Escherichia coli [15])	Drug uptake (Escherichia coli [16])	Activity (Escherichia coli [17])
CC[C@H](C)[C@H](N)C(=O)N[C@@H](CCCNC(=N)N)C(=O)N1CCC[C@H]1C(=O)N[C@@H](CCCNC(=N)N)C(=O)N1CCC[C@H]1C(=O)N1CCC[C@H]1C(=O)N[C@@H](CCCNC(=N)N)C(=O)N[C@@H](CC(C)C)C(=O)N1CCC[C@H]1C(=O)N[C@@H](CCCNC(=N)N)C(=O)N1CCC[C@H]1C(=O)N[C@@H](CCCNC(=N)N)C(=O)N1CCC[C@H]1C(=O)N[C@@H](CCCNC(=N)N)C(=O)N1CCC[C@H]1C(=O)N[C@@H](CC(C)C)C(=O)N1CCC[C@H]1C(=O)N[C@@H](Cc1ccc(O)cc1)C(=O)N1CCC[C@H]1C(=O)N[C@@H](CCCNC(=N)N)C(=O)N1CCC[C@H]1C(=O)N[C@@H](CSc1ccc2n1[B-](F)(F)[N+]1=CC=CC1=C2)C(=O)O (H-IRPRPPRLPRPRPRPLPYPRPC(X1)-OH)						Active	Active										
CC[C@H](C)[C@H](NC(=O)[C@H](CCCNC(N)=O)NC(=O)[C@@H](N)CCCNC(N)=O)C(=O)N[C@@H](CCCNC(=N)N)C(=O)N1CCC[C@H]1C(=O)N[C@@H](CCCNC(=N)N)C(=O)N1CCC[C@H]1C(=O)N1CCC[C@H]1C(=O)N[C@@H](CCCNC(=N)N)C(=O)N[C@@H](CC(C)C)C(=O)N1CCC[C@H]1C(=O)N[C@@H](CCCNC(=N)N)C(=O)N1CCC[C@H]1C(=O)N[C@@H](CCCNC(=N)N)C(=O)N1CCC[C@H]1C(=O)N[C@@H](CCCNC(=N)N)C(=O)N1CCC[C@H]1C(=O)N[C@@H](CC(C)C)C(=O)N1CCC[C@H]1C(=O)N[C@@H](Cc1ccc(O)cc1)C(=O)N1CCC[C@H]1C(=O)N[C@@H](CCCNC(=N)N)C(=O)N1CCC[C@H]1C(=O)O (H-[Cit][Cit]IRPRPPRLPRPRPRPLPYPRP-OH)						Active	Active		32 (≈ 92.8 µg/mL)	Active	> 64	8 (≈ 23.2 µg/mL)	32 (≈ 92.8 µg/mL)	Active			
CC[C@H](C)[C@H](NC(=O)[C@H](CCCNC(=N)N)NC(=O)[C@@H](N)CCCNC(=N)N)C(=O)N[C@@H](CCCNC(=N)N)C(=O)N1CCC[C@H]1C(=O)N[C@@H](CCCNC(=N)N)C(=O)N1CCC[C@H]1C(=O)N1CCC[C@H]1C(=O)N[C@@H](CCCNC(=N)N)C(=O)N[C@@H](CC(C)C)C(=O)N1CCC[C@H]1C(=O)N[C@@H](CCCNC(=N)N)C(=O)N1CCC[C@H]1C(=O)N[C@@H](CCCNC(=N)N)C(=O)N1CCC[C@H]1C(=O)N[C@@H](CCCNC(=N)N)C(=O)N1CCC[C@H]1C(=O)N[C@@H](CC(C)C)C(=O)N1CCC[C@H]1C(=O)N[C@@H](Cc1ccc(O)cc1)C(=O)N1CCC[C@H]1C(=O)N[C@@H](CCCNC(=N)N)C(=O)N1CCC[C@H]1C(=O)O								0.5 (≈ 1.45 µg/mL)	0.5 (≈ 1.45 µg/mL)		8 (≈ 23.2 µg/mL)	0.5 (≈ 1.45 µg/mL)	1 (≈ 2.9 µg/mL)		Active	Not Active	Active
